Measurements from ChEMBL document CHEMBL1141686, “Discovery of a novel class of PPARdelta partial agonists” (Bioorg Med Chem Lett, 2008).

Target: T1, Peroxisome proliferator-activated receptor alpha (Homo sapiens, UniProt Q07869)
T1 sequence (Q07869 whole entry): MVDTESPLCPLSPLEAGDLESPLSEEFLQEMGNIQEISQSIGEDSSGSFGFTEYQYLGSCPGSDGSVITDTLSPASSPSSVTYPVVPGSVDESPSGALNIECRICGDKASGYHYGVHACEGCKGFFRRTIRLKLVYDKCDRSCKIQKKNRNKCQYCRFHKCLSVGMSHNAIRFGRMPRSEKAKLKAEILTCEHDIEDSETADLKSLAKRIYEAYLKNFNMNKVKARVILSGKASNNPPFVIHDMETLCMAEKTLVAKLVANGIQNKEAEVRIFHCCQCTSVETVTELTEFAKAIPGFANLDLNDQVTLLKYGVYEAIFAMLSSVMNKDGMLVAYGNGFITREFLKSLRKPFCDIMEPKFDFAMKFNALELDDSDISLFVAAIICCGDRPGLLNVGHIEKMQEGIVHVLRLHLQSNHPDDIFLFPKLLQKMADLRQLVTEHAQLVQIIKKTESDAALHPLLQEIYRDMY

Compound	IC50 [µM]
Cc1cccc(C(=O)O)c1NC(=O)c1cccc(S(=O)(=O)N2CCc3ccccc3C2)c1	> 10
Cc1cccc(NC(=O)c2cccc(S(=O)(=O)N3CCc4ccccc4C3)c2)c1C(=O)O	> 10
Cc1ccc(NC(=O)c2cccc(S(=O)(=O)n3ccc4c(C)cccc43)c2)c(C(=O)O)c1	1
COc1ccc2ccn(S(=O)(=O)c3cccc(C(=O)Nc4ccc(C)cc4C(=O)O)c3)c2c1	3.98
Cc1ccc(NC(=O)c2cccc(S(=O)(=O)n3ccc4cccc(Cl)c43)c2)c(C(=O)O)c1	3.16
Cc1ccc(NC(=O)c2cccc(S(=O)(=O)n3ccc4ccc(Cl)cc43)c2)c(C(=O)O)c1	3.16
COc1cccc2c1ccn2S(=O)(=O)c1cccc(C(=O)Nc2ccc(Cl)cc2C(=O)O)c1	0.794
COc1ccc2c(ccn2S(=O)(=O)c2cccc(C(=O)Nc3ccc(Cl)cc3C(=O)O)c2)c1	3.16
COc1ccc2ccn(S(=O)(=O)c3cccc(C(=O)Nc4ccc(Cl)cc4C(=O)O)c3)c2c1	1.58
Cc1ccc(NC(=O)c2cccc(S(=O)(=O)n3ccc4cc(C)ccc43)c2)c(C(=O)O)c1	1
O=C(O)COc1cccc2c1CCN(S(=O)(=O)c1cccc(C(=O)Nc3ccc(Cl)cc3C(=O)O)c1)C2	5.01
Cc1ccc(NC(=O)c2cccc(S(=O)(=O)n3ccc4cccc(C)c43)c2)c(C(=O)O)c1	1.58
COc1cccc2ccn(S(=O)(=O)c3cccc(C(=O)Nc4ccc(C)cc4C(=O)O)c3)c12	> 10
COc1cccc2c1ccn2S(=O)(=O)c1cccc(C(=O)Nc2ccc(C)cc2C(=O)O)c1	1.26
COc1ccc2c(ccn2S(=O)(=O)c2cccc(C(=O)Nc3ccc(C)cc3C(=O)O)c2)c1	7.94
